Experimental data from ChEMBL document CHEMBL1641539 (Bioorg Med Chem Lett, 2011).

Columns and labels:
[1] = target: Dual specificity mitogen-activated protein kinase kinase 7 (Homo sapiens) (UniProt O14733); test: Inhibition of human MKK7beta at 10 uM after 60 mins by TR-FRET assay; conditions: values are per cent of control
[2] = target: Ribosomal protein S6 kinase alpha-4 (Homo sapiens) (UniProt O75676); test: Inhibition of human MSK2 at 10 uM after 60 mins by TR-FRET assay; conditions: values are per cent of control
[3] = target: Tyrosine-protein kinase Yes (Homo sapiens) (UniProt P07947); test: Inhibition of human Yes at 10 uM after 60 mins by TR-FRET assay; values are per cent of control
[4] = target: Tyrosine-protein kinase CSK (Homo sapiens) (UniProt P41240); test: Inhibition of human CSK at 10 uM after 60 mins by TR-FRET assay; values are per cent of control
[5] = target: Mitogen-activated protein kinase 10 (Homo sapiens, UniProt P53779); test: Inhibition of human JNK3 at 10 uM after 60 mins by TR-FRET assay; values are per cent of control
[6] = target: Maternal embryonic leucine zipper kinase (Homo sapiens) (UniProt Q14680); test: Inhibition of human MELK at 10 uM after 60 mins by TR-FRET assay; values are per cent of control
[7] = target: Muscle, skeletal receptor tyrosine-protein kinase (Homo sapiens) (UniProt O15146); test: Inhibition of human MuSK at 10 uM after 60 mins by TR-FRET assay; values are per cent of control
[8] = target: Serine/threonine-protein kinase Nek6 (Homo sapiens) (UniProt Q9HC98); test: Inhibition of human NEK6 at 10 uM after 60 mins by TR-FRET assay; values are per cent of control
[9] = target: T1, Serine/threonine-protein kinase Chk1 (Homo sapiens) (UniProt O14757); test: Inhibition of human CHK1 at 10 uM after 60 mins by TR-FRET assay; values are per cent of control
T1 sequence (whole entry): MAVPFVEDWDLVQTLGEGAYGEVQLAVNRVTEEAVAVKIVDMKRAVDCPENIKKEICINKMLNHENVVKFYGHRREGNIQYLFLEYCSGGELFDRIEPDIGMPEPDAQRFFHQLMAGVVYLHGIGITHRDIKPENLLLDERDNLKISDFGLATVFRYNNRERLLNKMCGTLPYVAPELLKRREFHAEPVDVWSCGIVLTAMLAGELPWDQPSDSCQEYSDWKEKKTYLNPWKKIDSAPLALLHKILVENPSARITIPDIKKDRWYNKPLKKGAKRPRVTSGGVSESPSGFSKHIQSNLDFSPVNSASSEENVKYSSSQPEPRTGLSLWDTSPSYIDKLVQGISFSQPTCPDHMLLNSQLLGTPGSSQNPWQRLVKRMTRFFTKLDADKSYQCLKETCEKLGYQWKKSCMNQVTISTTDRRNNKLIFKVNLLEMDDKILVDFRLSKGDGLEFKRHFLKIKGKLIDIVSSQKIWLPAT

[10] = target: Tyrosine-protein kinase FRK (Homo sapiens) (UniProt P42685); test: Inhibition of human PTK5 at 10 uM after 60 mins by TR-FRET assay; values are per cent of control
[11] = target: Ephrin type-A receptor 3 (Homo sapiens) (UniProt P29320); test: Inhibition of human EphA3 at 10 uM after 60 mins by TR-FRET assay; values are per cent of control
[12] = target: Ephrin type-B receptor 3 (Homo sapiens) (UniProt P54753); test: Inhibition of human EphB3 at 10 uM after 60 mins by TR-FRET assay; values are per cent of control
[13] = target: SRSF protein kinase 2 (Homo sapiens) (UniProt P78362); test: Inhibition of human SRPK2 at 10 uM after 60 mins by TR-FRET assay; values are per cent of control
[14] = target: RAF proto-oncogene serine/threonine-protein kinase (Homo sapiens) (UniProt P04049); test: Inhibition of human c-RAF at 10 uM after 60 mins by TR-FRET assay; values are per cent of control
[15] = target: Serine/threonine-protein kinase DCLK2 (Homo sapiens) (UniProt Q8N568); test: Inhibition of human DCAMKL2 at 10 uM after 60 mins by TR-FRET assay; values are per cent of control
[16] = target: Protein kinase C zeta type (Homo sapiens) (UniProt Q05513); test: Inhibition of human PKCzeta at 10 uM after 60 mins by TR-FRET assay; values are per cent of control
[17] = target: Serine/threonine-protein kinase MRCK beta (Homo sapiens) (UniProt Q9Y5S2); test: Inhibition of human MRCKbeta at 10 uM after 60 mins by TR-FRET assay; values are per cent of control
[18] = target: Calcium/calmodulin-dependent protein kinase type II subunit gamma (Homo sapiens) (UniProt Q13555); test: Inhibition of human CaMK2gamma at 10 uM after 60 mins by TR-FRET assay; values are per cent of control
[19] = target: Calcium/calmodulin-dependent protein kinase type 1D (Homo sapiens) (UniProt Q8IU85); test: Inhibition of human CaMK1delta at 10 uM after 60 mins by TR-FRET assay; values are per cent of control
[20] = target: CDK6/cyclin D3 (Homo sapiens) (UniProt P30281+Q00534); test: Inhibition of human CDK6/cyclinD3 at 10 uM after 60 mins by TR-FRET assay; values are per cent of control
[21] = tested on: Proto-oncogene tyrosine-protein kinase receptor Ret (Homo sapiens), P07949 [V804M]; test: Inhibition of human Ret V804M mutant at 10 uM after 60 mins by TR-FRET assay; values are per cent of control
[22] = tested on: Fibroblast growth factor receptor 1 (Homo sapiens), P11362 [V561M]; test: Inhibition of human FGFR1 V561M mutant at 10 uM after 60 mins by TR-FRET assay; values are per cent of control
[23] = tested on: Platelet-derived growth factor receptor alpha (Homo sapiens), P16234 [D842V]; test: Inhibition of human PDGFRalpha D842V mutant at 10 uM after 60 mins by TR-FRET assay; values are per cent of control

Sequence of Ephrin type-B receptor 3 (Homo sapiens) (P54753 whole entry): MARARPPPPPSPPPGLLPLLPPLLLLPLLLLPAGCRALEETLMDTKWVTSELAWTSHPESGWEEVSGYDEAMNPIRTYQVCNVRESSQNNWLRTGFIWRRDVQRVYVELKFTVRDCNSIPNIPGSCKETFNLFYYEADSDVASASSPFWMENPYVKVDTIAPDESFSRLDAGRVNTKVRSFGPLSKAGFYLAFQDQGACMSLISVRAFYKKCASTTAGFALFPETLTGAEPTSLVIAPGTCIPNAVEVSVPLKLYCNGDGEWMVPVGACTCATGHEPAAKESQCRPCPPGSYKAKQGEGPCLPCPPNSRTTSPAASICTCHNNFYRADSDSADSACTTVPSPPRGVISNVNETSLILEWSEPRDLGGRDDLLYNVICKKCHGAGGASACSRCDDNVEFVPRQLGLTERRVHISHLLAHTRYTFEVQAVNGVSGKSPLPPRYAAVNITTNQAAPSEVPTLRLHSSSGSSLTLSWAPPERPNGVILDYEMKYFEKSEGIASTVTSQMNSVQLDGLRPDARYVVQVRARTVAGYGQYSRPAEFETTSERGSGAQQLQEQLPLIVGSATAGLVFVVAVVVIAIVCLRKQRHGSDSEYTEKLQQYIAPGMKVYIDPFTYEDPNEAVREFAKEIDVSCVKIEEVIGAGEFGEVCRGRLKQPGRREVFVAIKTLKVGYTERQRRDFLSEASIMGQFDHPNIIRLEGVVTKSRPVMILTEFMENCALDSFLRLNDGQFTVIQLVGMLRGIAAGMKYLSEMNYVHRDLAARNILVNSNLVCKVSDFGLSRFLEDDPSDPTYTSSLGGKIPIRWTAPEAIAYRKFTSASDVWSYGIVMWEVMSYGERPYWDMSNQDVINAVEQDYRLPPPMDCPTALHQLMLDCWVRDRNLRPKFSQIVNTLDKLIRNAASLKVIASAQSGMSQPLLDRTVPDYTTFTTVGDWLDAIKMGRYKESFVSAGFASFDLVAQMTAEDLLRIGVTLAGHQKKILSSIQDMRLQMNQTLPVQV
Sequence of Calcium/calmodulin-dependent protein kinase type 1D (Homo sapiens) (Q8IU85 whole entry, looked up): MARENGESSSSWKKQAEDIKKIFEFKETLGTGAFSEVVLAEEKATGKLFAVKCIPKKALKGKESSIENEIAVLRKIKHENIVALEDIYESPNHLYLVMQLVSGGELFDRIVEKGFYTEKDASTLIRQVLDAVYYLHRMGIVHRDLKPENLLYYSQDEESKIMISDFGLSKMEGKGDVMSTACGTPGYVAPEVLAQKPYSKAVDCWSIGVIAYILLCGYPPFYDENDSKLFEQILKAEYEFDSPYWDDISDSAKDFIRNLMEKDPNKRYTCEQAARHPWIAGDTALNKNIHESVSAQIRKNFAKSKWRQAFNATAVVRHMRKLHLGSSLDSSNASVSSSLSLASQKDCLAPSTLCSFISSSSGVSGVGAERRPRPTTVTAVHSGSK
Sequence of Serine/threonine-protein kinase MRCK beta (Homo sapiens) (Q9Y5S2 whole entry): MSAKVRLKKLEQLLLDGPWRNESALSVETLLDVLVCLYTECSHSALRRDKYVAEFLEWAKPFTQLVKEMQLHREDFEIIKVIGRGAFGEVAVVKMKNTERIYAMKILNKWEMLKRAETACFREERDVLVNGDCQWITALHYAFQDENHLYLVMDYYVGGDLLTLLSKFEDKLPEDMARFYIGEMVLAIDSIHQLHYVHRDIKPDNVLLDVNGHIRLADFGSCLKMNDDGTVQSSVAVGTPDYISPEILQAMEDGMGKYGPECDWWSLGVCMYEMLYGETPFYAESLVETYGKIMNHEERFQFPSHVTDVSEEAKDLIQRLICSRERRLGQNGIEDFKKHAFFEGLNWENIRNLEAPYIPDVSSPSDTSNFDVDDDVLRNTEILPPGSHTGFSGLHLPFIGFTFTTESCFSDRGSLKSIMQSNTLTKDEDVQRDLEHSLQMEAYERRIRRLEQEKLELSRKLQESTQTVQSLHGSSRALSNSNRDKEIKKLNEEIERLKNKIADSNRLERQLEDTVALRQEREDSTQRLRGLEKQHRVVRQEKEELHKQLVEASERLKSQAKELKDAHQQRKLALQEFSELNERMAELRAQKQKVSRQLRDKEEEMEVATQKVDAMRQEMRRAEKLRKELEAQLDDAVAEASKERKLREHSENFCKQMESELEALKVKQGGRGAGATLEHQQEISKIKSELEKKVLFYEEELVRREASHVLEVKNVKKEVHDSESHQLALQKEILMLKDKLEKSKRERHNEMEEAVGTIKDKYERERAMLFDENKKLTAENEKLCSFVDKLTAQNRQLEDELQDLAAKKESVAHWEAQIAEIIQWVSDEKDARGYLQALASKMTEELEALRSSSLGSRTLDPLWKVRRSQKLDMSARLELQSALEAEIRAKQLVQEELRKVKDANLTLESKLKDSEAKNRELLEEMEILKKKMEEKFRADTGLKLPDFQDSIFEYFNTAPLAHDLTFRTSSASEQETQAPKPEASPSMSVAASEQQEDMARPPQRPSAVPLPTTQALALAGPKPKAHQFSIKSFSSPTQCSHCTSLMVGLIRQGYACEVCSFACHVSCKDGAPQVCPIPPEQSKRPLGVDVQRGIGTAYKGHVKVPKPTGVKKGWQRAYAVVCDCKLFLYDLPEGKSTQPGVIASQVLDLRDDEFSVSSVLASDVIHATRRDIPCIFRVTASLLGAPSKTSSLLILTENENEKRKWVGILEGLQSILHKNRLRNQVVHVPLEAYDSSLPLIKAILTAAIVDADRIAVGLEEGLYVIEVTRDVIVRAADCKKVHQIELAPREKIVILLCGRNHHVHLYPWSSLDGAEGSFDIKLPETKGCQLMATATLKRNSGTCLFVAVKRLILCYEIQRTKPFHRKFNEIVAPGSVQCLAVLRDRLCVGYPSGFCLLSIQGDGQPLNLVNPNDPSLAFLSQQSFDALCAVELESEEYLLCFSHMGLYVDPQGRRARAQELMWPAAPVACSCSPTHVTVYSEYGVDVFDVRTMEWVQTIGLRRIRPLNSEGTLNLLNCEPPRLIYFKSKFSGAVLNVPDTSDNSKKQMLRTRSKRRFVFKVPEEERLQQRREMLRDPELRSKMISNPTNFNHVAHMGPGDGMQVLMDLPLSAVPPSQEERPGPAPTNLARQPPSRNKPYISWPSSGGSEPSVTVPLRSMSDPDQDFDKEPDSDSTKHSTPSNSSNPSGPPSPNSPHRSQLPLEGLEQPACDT
Sequence of Tyrosine-protein kinase CSK (Homo sapiens) (P41240 2-450 limits assumed): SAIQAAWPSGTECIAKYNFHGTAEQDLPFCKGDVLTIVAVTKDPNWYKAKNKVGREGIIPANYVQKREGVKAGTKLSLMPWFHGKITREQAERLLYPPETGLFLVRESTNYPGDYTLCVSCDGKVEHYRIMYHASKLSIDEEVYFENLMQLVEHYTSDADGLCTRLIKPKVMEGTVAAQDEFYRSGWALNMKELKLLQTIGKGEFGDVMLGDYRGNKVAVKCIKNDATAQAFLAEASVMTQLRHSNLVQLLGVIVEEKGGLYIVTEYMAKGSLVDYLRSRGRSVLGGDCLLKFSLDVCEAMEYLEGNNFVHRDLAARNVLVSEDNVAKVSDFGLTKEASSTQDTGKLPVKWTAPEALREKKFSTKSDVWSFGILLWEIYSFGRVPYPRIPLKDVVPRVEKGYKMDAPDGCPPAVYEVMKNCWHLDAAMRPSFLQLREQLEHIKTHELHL
Sequence of Mitogen-activated protein kinase 10 (P53779 whole entry): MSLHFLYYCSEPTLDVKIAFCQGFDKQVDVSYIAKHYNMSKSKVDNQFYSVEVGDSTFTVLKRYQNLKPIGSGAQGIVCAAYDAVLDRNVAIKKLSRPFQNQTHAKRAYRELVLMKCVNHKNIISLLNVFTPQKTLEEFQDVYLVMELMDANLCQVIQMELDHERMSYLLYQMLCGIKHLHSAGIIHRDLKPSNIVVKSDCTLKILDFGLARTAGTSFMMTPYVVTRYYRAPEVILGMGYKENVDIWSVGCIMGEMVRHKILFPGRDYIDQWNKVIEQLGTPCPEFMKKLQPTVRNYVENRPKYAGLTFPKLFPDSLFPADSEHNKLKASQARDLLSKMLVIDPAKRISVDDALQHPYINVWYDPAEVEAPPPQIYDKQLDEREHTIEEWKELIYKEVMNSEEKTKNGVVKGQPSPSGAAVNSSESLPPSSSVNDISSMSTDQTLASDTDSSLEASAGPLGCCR
Sequence of RAF proto-oncogene serine/threonine-protein kinase (Homo sapiens) (P04049 whole entry): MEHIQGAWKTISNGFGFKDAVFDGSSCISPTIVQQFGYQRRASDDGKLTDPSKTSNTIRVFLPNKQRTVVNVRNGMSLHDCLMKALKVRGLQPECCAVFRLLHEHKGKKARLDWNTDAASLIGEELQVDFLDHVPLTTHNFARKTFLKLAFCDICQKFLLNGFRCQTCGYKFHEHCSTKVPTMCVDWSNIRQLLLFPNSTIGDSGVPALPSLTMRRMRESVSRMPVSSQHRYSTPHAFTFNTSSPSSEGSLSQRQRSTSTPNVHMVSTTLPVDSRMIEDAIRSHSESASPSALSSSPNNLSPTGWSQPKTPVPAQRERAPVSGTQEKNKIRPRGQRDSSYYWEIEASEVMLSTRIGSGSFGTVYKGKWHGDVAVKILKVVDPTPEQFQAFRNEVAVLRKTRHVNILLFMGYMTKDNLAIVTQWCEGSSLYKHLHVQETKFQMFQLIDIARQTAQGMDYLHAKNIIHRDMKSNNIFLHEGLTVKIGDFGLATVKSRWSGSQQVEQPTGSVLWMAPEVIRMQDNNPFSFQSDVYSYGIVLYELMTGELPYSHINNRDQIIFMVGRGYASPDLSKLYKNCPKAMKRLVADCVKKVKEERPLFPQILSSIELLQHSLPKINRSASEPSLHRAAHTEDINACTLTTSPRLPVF
Sequence of Serine/threonine-protein kinase Nek6 (Homo sapiens) (Q9HC98 whole entry): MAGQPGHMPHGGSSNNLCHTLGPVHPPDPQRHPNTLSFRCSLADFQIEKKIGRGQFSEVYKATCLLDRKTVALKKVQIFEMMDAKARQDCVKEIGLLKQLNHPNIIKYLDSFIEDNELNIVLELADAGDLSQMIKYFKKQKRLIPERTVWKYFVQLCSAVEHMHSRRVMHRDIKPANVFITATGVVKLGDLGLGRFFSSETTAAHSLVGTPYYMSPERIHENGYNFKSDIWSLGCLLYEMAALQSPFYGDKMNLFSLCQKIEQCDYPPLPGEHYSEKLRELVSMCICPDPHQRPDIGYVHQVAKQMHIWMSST

residual activity [1]: 126%
residual activity [2]: 109%
residual activity [3]: 107%
residual activity [4]: 100%
residual activity [5]: 4%
residual activity [6]: 105%
residual activity [7]: 114%
residual activity [8]: 116%
residual activity [9]: 113%
residual activity [10]: 98%
residual activity [11]: 90%
residual activity [12]: 102%
residual activity [13]: 110%
residual activity [14]: 35%
residual activity [15]: 112%
residual activity [16]: 115%
residual activity [17]: 106%
residual activity [18]: 118%
residual activity [19]: 104%
residual activity [20]: 102%
residual activity [21]: 116%
residual activity [22]: 106%
residual activity [23]: 122%
SMILES: S=c1[nH]nc(-c2ccncc2)n1-c1ccc2ccccc2c1
